Measured values from US11365202B2, “Antimalarial compounds, process for preparation and their use for drug resistant malaria” (Council of Scientific and Industrial Research, priority 2018, dated 2022).
Like-named read-outs stand apart in the source and are kept apart here.

What was measured:
falcipain-2 = falcipain-2 (Plasmodium falciparum (isolate 3D7), UniProt Q8I6U4); experiment: Fluorometric assay for falcipain-2 activity; format: biochemical
Protocol: Recombinant falcipain-2 was prepared according to the method described by Shenai et al. (J Biol Chem.; 2000, 275(37): 29000-10) and Kumar et al. (Biochem Biophys. Res Commun. 2004, 317(1), 38-45) with slight modification. Briefly, Escherichia coli M15 containing pQE30-FP-2 plasmid were grown to mid-log phase and induced with isopropyl-1-thio-b-D-galactopyranoside (IPTG, 0.5 mM) for 5 h at 37° C. Cells were harvested, washed with ice-cold 100 mM Tris-Cl, 10 mM EDTA, pH 7.4, sonicated (12 cycles of 10 s each, with cooling for 10 s between the cycles), and centrifuged at 15,000 rpm for 45 min at 4° C. The pellet was washed twice with 2.5 M urea, 20 mM Tris-Cl2.5% Triton X-100, pH 8.0; centrifuged at 15,000 rpm for 45 min at 4° C.; and solubilized in 6 M guanidine HCl, 20 mM Tris-Cl, 250 mM NaCl, 20 mM imidazole, pH 8.0 (5 ml/g of inclusion body pellet) at RT for 60 min with gentle stirring. Insoluble material was separated by centrifuging at 15,000 rpm for 60 min at 4° C. For the purification of the recombinant protein, the supernatant was incubated overnight at 4° C. with a nickel-nitrilotriacetic acid (Ni-NTA) resin. The resin was loaded on a column and washed with 10 bed volumes each of 6 M guanidine HCl, 20 mM Tris-Cl, 250 mM NaCl, pH 8.0; 8 M urea, 20 mM Tris-Cl, 500 mM NaCl, pH 8.0; and 8 M urea, 20 mM Tris-Cl, 30 mM imidazole, pH 8.0. Bound protein was eluted with 8 M urea, 20 mM Tris-Cl, 1 M imidazole, pH 8.0 and quantified by the Biocinchoninic acid assay. For the refolding, the fractions containing falcipain-2 protein were pooled in ice-cold refolding buffer: 100 mM diluted in Tris-Cl, 1 mM EDTA, 20% glycerol, 250 mM L-arginine, 1 mM GSH, 1 mM GSSG, pH 8.0 was added in a 100 fold dilution. The mixture was incubated with moderate stirring at 4° C. for 24 h, and concentrated to 25 ml using a stirred cell with a 10-kDa cut-off membrane (Pellicon XL device, Millipore) at 4° C. […] The purified and concentrated protein was quantified using Biocinchoninic acid assay. • b) Fluorometric Assay for Falcipain-2 activity:
For screening of falcipain-2 inhibitors, a 96-well plate fluorometric assay was developed following a protocol described by Kumar et al. (Biochem Biophys Res Commun.; 2004, 317(1), 38-45) Briefly, reaction was set up in a 200 ml reaction mixture containing 100 mM NaOAc, 10 mM DTT, 6 mg enzyme and different concentrations of inhibitors, pH 5.5. 10 mM of fluorogenic substrate benzyloxycarbonyl-Phe-Arg-7-amino-4-methylcoumarin hydrochloride (ZFR-AMC) was added, and the release of 7-amino-4-methylcoumarin (AMC) was monitored (excitation 355 nm; emission 460 nm) over 30 min at RT in Perkin Elmer Victor3 multi-label counter. […] The IC50 values were calculated from curve fittings by software Workout V 2.5.

P. falciparum 3D7 = experiment: P. falciparum growth inhibition assay, 3D7 strain; format: cell-based; settings: Plasmodium falciparum, read-out: EC50 on P. falciparum 3D7
Protocol: (§1) P. falciparum strain 3D7, Dd2 and 7G8 were cultured in RPMI media (Invitrogen) supplemented with 0.5% albumax and 4% haematocrit using a protocol described previously [Trager and Jensen (Science,1976; 193:673-675)]. Cultures were synchronized by repeated sorbitol treatment following Lambros and Vanderberg (J Parasitol; 1979; 65:418-420). Each growth inhibition assay was performed in triplicate and the experiment was repeated twice. Each well contained 0.5 ml of complete media [RPMI (invitrogen) with 0.5% albumax], 4% haematocrit and the parasitaemia adjusted to ˜1%; the compound added to the parasite cultures to desired final concentrations (0-100 µM) and same amount of solvent (DMSO) was added to the control wells. The cultures were allowed to grow further for 48 h. Parasite growth was assessed by DNA fluorescent dye-binding assay using SYBR green (Sigma) following Smilkstein et al (Antimicrob Agents Chemother.; 2004, 48, 1803-1806). • f) In Vitro Toxicity Assay on CHO Cells

P. falciparum 7G8 = experiment: P. falciparum growth inhibition assay, 7G8 strain; format: cell-based; settings: Plasmodium falciparum
Protocol: as §1

P. falciparum Dd2 = experiment: P. falciparum growth inhibition assay, Dd2 strain; format: cell-based; settings: Plasmodium falciparum
Protocol: as §1

A549 human cells = experiment: In vitro toxicity on mammalian cell culture; format: cell-based
P. berghei = experiment: In vivo parasiticidal assay with P. berghei mice malaria model; settings: for Complete Protection - Mice with complete parasite clearance / Survival after treatment: 4 doses of 12.5 mg/Kg of body weight, infected BALB/c mice
Protocol: Five groups of female BALB/c mice, 6-8 weeks of age (four mice/group) were used for testing the in vivo parsiticidal and protective efficacy of different drug treatments. Mice were injected IP with 1×10^6 P. berghei infected erythrocytes. The drug treatment was initiated 5 days after inducing parasitemia; mice in a group were given 4 doses of a compound at 12.5 mg/Kg of body weight. Control mice were given solvent alone. The parasitemia was assessed everyday in thin smears of Giemsa stained RBCs from tail blood of each mouse, by counting parasitized erythrocytes in more than 10,000 erythrocytes. Time of death of the mice in each group was also monitored.

Sequence of falcipain-2 (Q8I6U4 244-484 limits assumed): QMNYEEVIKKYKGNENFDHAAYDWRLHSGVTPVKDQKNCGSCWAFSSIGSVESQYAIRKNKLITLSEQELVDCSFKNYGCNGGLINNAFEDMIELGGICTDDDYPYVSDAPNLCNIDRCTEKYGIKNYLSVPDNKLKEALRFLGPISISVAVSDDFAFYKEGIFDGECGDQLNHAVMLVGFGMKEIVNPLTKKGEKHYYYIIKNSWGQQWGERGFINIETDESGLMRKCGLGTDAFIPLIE

`CCOP(=O)(/C=C/C(NC(=O)[C@H](CO[C@H]1O[C@@H]2O[C@@]3(C)CC[C@H]4[C@H](C)CC[C@@H]([C@H]1C)[C@@]24OO3)NC(=O)OCc1ccccc1)c1ccccc1)OCC` (mixture of isomers) [Compound 1, Benzyl ((2S)-1-(((E)-3-(diethoxyphosphoryl)-1-phenylallyl)amino)-1-oxo-3-(((3R,5aS,6R, 8aS,9R,10S,12R,12aR)-3,6,9-trimethyldecahydro-12H-3,12-epoxy[1,2]dioxepino[4,3-i]isochromen-10-yl)oxy)propan-2-yl)carbamate] was tested, and the IC50 (falcipain-2) was > 100000 nM and the “activity against falcipain-2 enzyme (in words)” value (shortened to “activity”) (falcipain-2) was “inactive”.
In the case of `CCOP(=O)(/C=C/C(NC(=O)[C@H](Cc1ccccc1)NC(=O)[C@H](CO[C@H]1O[C@@H]2O[C@@]3(C)CC[C@H]4[C@H](C)CC[C@@H]([C@H]1C)[C@@]24OO3)NC(=O)OCc1ccccc1)c1ccccc1)OCC` (mixture of isomers) [Compound 2, Benzyl ((2S)-1-(((2S)-1-(((E)-3-(diethoxyphosphoryl)-1-phenylallyl)amino)-1-oxo-3-phenylpropan-2-yl)amino)-1-oxo-3-(((3R,5aS,6R,8aS,9R,10S,12R,12 aR)-3,6,9-trimethyldeca hydro-12H-3,12-epoxy[1,2]dioxepino[4,3-i]isochromen-10-yl)oxy)propan-2-yl)carbamate], the EC50 (P. falciparum 3D7; 3D7, 48 h) is reported as 2.7 nM, the EC50 (P. falciparum 7G8; 7G8, read-out: EC50 on P. falciparum 7G8) is reported as 0.47 nM and the EC50 (P. falciparum Dd2; DD2, read-out: EC50 on P. falciparum Dd2) is reported as 1.9 nM. For the same molecule, the EC50 (A549 human cells; Homo sapiens, A549, in vitro toxicity) was 14600 ± 175 nM.
With `CCOP(=O)(/C=C/[C@@H](NC(=O)[C@H](CC(C)C)NC(=O)[C@H](CO[C@H]1O[C@@H]2OC3(C)CC[C@H]4[C@H](C)CC[C@@H]([C@H]1C)[C@@]24OO3)NC(=O)OCc1ccccc1)c1ccccc1)OCC` (stereo in doubt) [Compound 3a, Benzyl ((S)-1-(((S)-1-(((R,E)-3-(diethoxyphosphoryl)-1-phenylallyl)amino)-4-methyl-1-oxopentan-2-yl)amino)-1-oxo-3-(((3R,5aS,6R,8aS,9R,10S,12R,12aR)-3,6,9-trimethyldeca hydro-12H-3,12-epoxy[1,2]dioxepino[4,3-i]isochromen-10-yl)oxy)propan-2-yl)carbamate] the EC50 (P. falciparum 3D7; 3D7, 48 h) was 10.9 nM.
In the case of `CCOP(=O)(/C=C/[C@H](NC(=O)[C@H](CC(C)C)NC(=O)[C@H](CO[C@H]1O[C@@H]2OC3(C)CC[C@H]4[C@H](C)CC[C@@H]([C@H]1C)[C@@]24OO3)NC(=O)OCc1ccccc1)c1ccccc1)OCC` (stereo in doubt) [Compound 3b, Benzyl ((S)-1-(((S)-1-(((S,E)-3-(diethoxyphosphoryl)-1-phenylallyl)amino)-4-methyl-1-oxopentan-2-yl)amino)-1-oxo-3-(((3R,5aS,6R,8aS,9R,10S,12R,12aR)-3,6,9-trimethyldeca hydro-12H-3,12-epoxy[1,2]dioxepino[4,3-i]isochromen-10-yl)oxy)propan-2-yl)carbamate], the EC50 (P. falciparum 3D7; 3D7, 48 h) is reported as 16.7 nM.
In the case of `CCOP(=O)(/C=C/C(NC(=O)[C@@H]1C[C@@H](O[C@H]2O[C@@H]3OC4(C)CC[C@H]5[C@H](C)CC[C@@H]([C@H]2C)[C@@]35OO4)CN1C(=O)OCc1ccccc1)c1ccccc1)OCC` (stereo in doubt) [Compound 4, Benzyl (2S,4R)-2-(((E)-3-(diethoxyphosphoryl)-1-phenylallyl)carbamoyl)-4-(((3R,5aS, 6R,8aS,9R,10S,12R,12aR)-3,6,9-trimethyldecahydro-12H-3,12-epoxy[1,2]dioxepino[4,3-i]isochromen-10-yl)oxy)pyrrolidine-1-carboxylate], the “activity” value (falcipain-2) is reported as “inactive”.
`CCOP(=O)(/C=C/[C@@H](NC(=O)[C@H](CC(C)C)NC(=O)[C@@H]1C[C@@H](O[C@H]2O[C@@H]3OC4(C)CC[C@H]5[C@H](C)CC[C@@H]([C@H]2C)[C@@]35OO4)CN1C(=O)OCc1ccccc1)c1ccccc1)OCC` (stereo in doubt) [Compound 5a, Benzyl (2S,4R)-2-(((S)-1-(((R,E)-3-(diethoxyphosphoryl)-1-phenylallyl)amino)-4-methyl-1-oxopentan-2-yl)carbamoyl)-4-(((3R,5aS,6R,8aS,9R,10S,12R,12aR)-3,6,9-trimethyldeca hydro-12H-3,12-epoxy[1,2]dioxepino[4,3-i]isochromen-10-yl)oxy)pyrrolidine-1-carboxylate] showed an EC50 (P. falciparum 3D7; 3D7, 48 h) of 1.04 nM.
Work on `CCOP(=O)(/C=C/[C@H](NC(=O)[C@H](CC(C)C)NC(=O)[C@@H]1C[C@@H](O[C@H]2O[C@@H]3OC4(C)CC[C@H]5[C@H](C)CC[C@@H]([C@H]2C)[C@@]35OO4)CN1C(=O)OCc1ccccc1)c1ccccc1)OCC` (stereo in doubt) [Compound 5b, Benzyl (2S,4R)-2-(((S)-1-(((S,E)-3-(diethoxyphosphoryl)-1-phenylallyl)amino)-4-methyl-1-oxopentan-2-yl)carbamoyl)-4-(((3R,5aS,6R,8aS,9R,10S,12R,12aR)-3,6,9-trimethyldeca hydro-12H-3,12-epoxy[1,2]dioxepino[4,3-i]isochromen-10-yl)oxy)pyrrolidine-1-carboxylate] yielded an EC50 (P. falciparum 3D7; 3D7, 48 h) of 6.12 nM.
`CCOP(=O)(/C=C/C(NC(=O)[C@H](Cc1ccccc1)NC(=O)[C@@H]1C[C@@H](O[C@H]2O[C@@H]3OC4(C)CC[C@H]5[C@H](C)CC[C@@H]([C@H]2C)[C@@]35OO4)CN1C(=O)OCc1ccccc1)c1ccccc1)OCC` (stereo in doubt) [Compound 6, Benzyl (2S,4R)-2-(((2S)-1-(((E)-3-(diethoxyphosphoryl)-1-phenylallyl)amino)-1-oxo-3-phenylpropan-2-yl)carbamoyl)-4-(((3R,5aS,6R,8aS,9R,10S,12R,12aR)-3,6,9-trimethyldecahydro-12H-3,12-epoxy[1,2]dioxepino[4,3-i]isochromen-10-yl)oxy)pyrrolidine-1-carboxylate] was tested, and the “activity” value (falcipain-2) was “inactive”.
For `C[C@@H]1CC[C@H]2[C@@H](C)C(=O)O[C@@H]3O[C@@]4(C)CC[C@@H]1[C@]32OO4` [Artemisinin, reference compound], the EC50 (P. falciparum 3D7; 3D7, chloroquine-sensitive strain, in vitro culture, 48 h) was ~27 nM, the “Complete Protection - Mice with complete parasite clearance” value (P. berghei) was 0% of treated mice and the Survival after treatment (P. berghei) was 15 to 25 days. It also gave an EC50 (P. falciparum 7G8; 7G8, Chloroquine and Pyrimethamine resistant strain, in vitro culture, read-out: EC50 on P. falciparum 7G8) of ~18 nM and an EC50 (P. falciparum Dd2; DD2, Chloroquine, Pyrimethamine and Mefloquine resistant strain, in vitro culture, read-out: EC50 on P. falciparum Dd2) of ~15 nM.
For `CCOP(=O)(/C=C/C(NC(=O)[C@H](Cc1ccccc1)NC(=O)[C@H](CO[C@H]1O[C@@H]2O[C@@]3(C)CC[C@H]4[C@H](C)CC[C@@H]([C@H]1C)[C@@]24OO3)NC(=O)OCc1ccccc1)c1ccccc1)OCC` (stereo partly drawn) [Compound 2, Benzyl ((2S)-1-(((2S)-1-(((E)-3-(diethoxyphosphoryl)-1-phenylallyl)amino)-1-oxo-3-phenylpropan-2-yl)amino)-1-oxo-3-(((3R,5aS,6R,8aS,9R,10S,12R,12 aR)-3,6,9-trimethyldeca hydro-12H-3,12-epoxy[1,2]dioxepino[4,3-i]isochromen-10-yl)oxy)propan-2-yl)carbamate], the “protection in treated group of mice” value (P. berghei; 12.5 mg/kg of body weight) was 100%, the “Complete Protection - Mice with complete parasite clearance” value (P. berghei) was 80% of treated mice and the Survival after treatment (P. berghei) was >60 days. For the same molecule, the “in vitro toxicity on A549 human cells (in words)” value (A549 human cells) was “non-toxic”.
`CCOP(=O)(/C=C/[C@@H](NC(=O)[C@H](Cc1ccccc1)NC(=O)[C@H](CO[C@H]1O[C@@H]2O[C@@]3(C)CC[C@H]4[C@H](C)CC[C@@H]([C@H]1C)[C@@]24OO3)NC(=O)OCc1ccccc1)c1ccccc1)OCC` [Compound 2a, Benzyl ((S)-1-(((S)-1-(((R,E)-3-(diethoxyphosphoryl)-1-phenylallyl)amino)-1-oxo-3-phenylpropan-2-yl)amino)-1-oxo-3-(((3R,5aS,6R,8aS,9R,10S,12R,12aR)-3,6,9-trimethyldeca hydro-12H-3,12-epoxy[1,2]dioxepino[4,3-i]isochromen-10-yl)oxy)propan-2-yl)carbamate] was tested, and the EC50 (P. falciparum 3D7; 3D7, 48 h) was 0.95 nM.
`CCOP(=O)(/C=C/[C@H](NC(=O)[C@H](Cc1ccccc1)NC(=O)[C@H](CO[C@H]1O[C@@H]2O[C@@]3(C)CC[C@H]4[C@H](C)CC[C@@H]([C@H]1C)[C@@]24OO3)NC(=O)OCc1ccccc1)c1ccccc1)OCC` [Compound 2b, Benzyl ((S)-1-(((S)-1-(((S,E)-3-(diethoxyphosphoryl)-1-phenylallyl)amino)-1-oxo-3-phenylpropan-2-yl)amino)-1-oxo-3-(((3R,5aS,6R,8aS,9R,10S,12R,12aR)-3,6,9-trimethyldeca hydro-12H-3,12-epoxy[1,2]dioxepino[4,3-i]isochromen-10-yl)oxy)propan-2-yl)carbamate] gave an EC50 (P. falciparum 3D7; 3D7, 48 h) of 2.03 nM.
